In ChEMBL document CHEMBL1201862, “PubChem BioAssay data set” (2004):
Calls of active or inactive are those of the source.

Tests used:
H9c2 = experiment: cells; format: functional, cell-based; conditions: Rattus norvegicus, H9c2, Myocardium;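 also: confirmatory concentration-response retest of ultra-high-throughput screening hits for modulation of myocardial damage; cell death induced by hydrogen peroxide oxidative stress; compound pretreatment for 60 min then peroxide exposure for 2 h; potency is for protecting the cells against peroxide damage rather than for killing them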
cells = format: functional, cell-based; conditions: INS-1E
[1] = IC50 of insulin release inhibition, rat insulinoma INS-1E line, 5 mM glucose, cell-based (AID 1117331); format: functional
[2] = molecular target: T1, Low molecular weight phosphotyrosine protein phosphatase (Homo sapiens, UniProt P24666); experiment: inhibition of LMPTP-A enzymatic activity – biochemical, OMFP substrate, fluorescence intensity, set 2, dose response (AID 743307); format: functional
T1 sequence (P24666 whole entry): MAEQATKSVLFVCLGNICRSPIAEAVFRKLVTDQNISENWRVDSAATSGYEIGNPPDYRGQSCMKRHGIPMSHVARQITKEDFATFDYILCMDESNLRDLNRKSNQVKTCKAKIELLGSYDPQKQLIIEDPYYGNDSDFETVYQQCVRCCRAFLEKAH

[3] = molecular target: T1, Low molecular weight phosphotyrosine protein phosphatase; experiment: inhibition of human LMPTP enzyme activity – biochemical, absorbance, pNPP substrate, LMPTP-A isoform, set 2, orthogonal assay, dose response (AID 743308); format: functional
[4] = molecular target: G-protein coupled receptor 183 (Homo sapiens, UniProt P32249); experiment: SAR confirmation of small molecule antagonists of the EBI2 receptor via a luminescent beta-arrestin assa.; format: functional
[5] = growth inhibition of PfATP4-mutant resistant parasites – NITD609-resistant line, SYBR Green, dry powder, dose response (AID 1159571); format: functional, cell-based;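 also: parasites synchronized at ring stage by sorbitol before testing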
[6] = Dd2 malaria parasite growth inhibition potency – SYBR Green, dry powder samples, dose response (AID 1159566); format: functional, cell-based;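 also: potency for growth inhibition with lower SYBR green DNA signal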
[7] = Dd2 parasite growth inhibition in erythrocytes – SYBR Green, dry powder samples, set 9, dose response (AID 1159568); format: functional, cell-based
[8] = P. falciparum Dd2 growth inhibitors, dose response, SYBR Green, cherry-picked samples (AID 1159567); format: functional, cell-based
[9] = growth inhibition of yeast DHODH-expressing 3D7 parasites – SYBR Green, dry powder samples, dose response (AID 1159570); format: functional, cell-based;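 also: parasite growth measured after 72 hours of compound exposure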
[10] = M. tuberculosis growth inhibition, HTS (AID 449762); format: functional
HeLa = experiment: ATP-based viability loss in HeLa cells – cell-based, CellTiter-Glo luminescence, cherry-pick samples, cytotoxicity control for MITF activator project, dose response (AID 540259); format: functional; conditions: Homo sapiens
[11] = A cytotoxicity screen of small molecule inhibitors of the PhoP region in Salmonella typhi identified in the primary screen. [Related pubchem assays: 1850, 1864, 1985 ]; format: functional
[12] = molecular target: Protein-tyrosine kinase 2-beta (Homo sapiens, UniProt Q14289);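 also: potency of inhibitors of PYK2 kinase phosphorylation of poly-GT substrate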
[13] = Luminescence Cell-Based Dose Response HTS to Identify Activators of Luciferase Translation or Activity in H4 […] Cells. [Related pubchem assays: 1829 (Project Summary), 1814 (Primary HTS)]; format: functional
Galanin receptor type 2 = Galanin receptor type 2 (Homo sapiens, UniProt O43603); experiment: Dose Response cell-based high-throughput screening assay to identify antagonists of galanin receptor 2 (GALR2). [Related pubchem assays: 828, 866 ]; format: functional
[14] = Luminescence Cell-Based Dose Confirmation HTS to Identify Activators of 5'UTR Stem-Loop Driven Alpha-Synuclein mRNA Translation in H4 Neuroglioblastoma Cells. [Related pubchem assays: 1829 (Project Summary), 1814 (Primary HTS)]; format: functional
H4 = experiment: Luminescence Cell-Based Dose Response HTS to Identify Activators of 5'UTR Stem-Loop Driven Prion Protein mRNA Translation in H4 Neuroglioblastoma Cells. [Related pubchem assays: 1829 (Project Summary), 1814 (Primary HTS)]; format: functional; conditions: Homo sapiens
[15] = molecular target: Transitional endoplasmic reticulum ATPase (Homo sapiens, UniProt P55072); experiment: Luminescence dose response biochemical high throughput screening assay for inhibitors of the p97 ATPase: synthesized compounds. [Related pubchem assays: 1481, 1517 ]
[16] = molecular target: Transitional endoplasmic reticulum ATPase (Homo sapiens, UniProt P55072, C522A); experiment: Luminescence counterscreen assay for p97 inhibitors: dose response biochemical high throughput screening assay to identify inhibitors of the C522A mutant p97 ATPase: synthesized compounds. [Related pubchem assays: 1481, 1517, 1551 ]
Genome polyprotein = Genome polyprotein (Hepatitis C virus, UniProt Q2Q167); experiment: disruption of hepatitis C core self-association – biochemical, TR-FRET, dose response (AID 2159); set-up: species or system Hepacivirus hominis;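 also: blocks dimerization of HCV core protein measured by TR-FRET between tagged core106 pairs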
Genome polyprotein, sequence (Q2Q167 whole entry): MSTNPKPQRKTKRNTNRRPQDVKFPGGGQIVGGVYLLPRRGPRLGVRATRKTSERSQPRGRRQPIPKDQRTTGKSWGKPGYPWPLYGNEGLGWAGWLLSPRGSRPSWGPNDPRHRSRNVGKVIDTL

Transitional endoplasmic reticulum ATPase (Homo sapiens, UniProt P55072), sequence (P55072 whole entry): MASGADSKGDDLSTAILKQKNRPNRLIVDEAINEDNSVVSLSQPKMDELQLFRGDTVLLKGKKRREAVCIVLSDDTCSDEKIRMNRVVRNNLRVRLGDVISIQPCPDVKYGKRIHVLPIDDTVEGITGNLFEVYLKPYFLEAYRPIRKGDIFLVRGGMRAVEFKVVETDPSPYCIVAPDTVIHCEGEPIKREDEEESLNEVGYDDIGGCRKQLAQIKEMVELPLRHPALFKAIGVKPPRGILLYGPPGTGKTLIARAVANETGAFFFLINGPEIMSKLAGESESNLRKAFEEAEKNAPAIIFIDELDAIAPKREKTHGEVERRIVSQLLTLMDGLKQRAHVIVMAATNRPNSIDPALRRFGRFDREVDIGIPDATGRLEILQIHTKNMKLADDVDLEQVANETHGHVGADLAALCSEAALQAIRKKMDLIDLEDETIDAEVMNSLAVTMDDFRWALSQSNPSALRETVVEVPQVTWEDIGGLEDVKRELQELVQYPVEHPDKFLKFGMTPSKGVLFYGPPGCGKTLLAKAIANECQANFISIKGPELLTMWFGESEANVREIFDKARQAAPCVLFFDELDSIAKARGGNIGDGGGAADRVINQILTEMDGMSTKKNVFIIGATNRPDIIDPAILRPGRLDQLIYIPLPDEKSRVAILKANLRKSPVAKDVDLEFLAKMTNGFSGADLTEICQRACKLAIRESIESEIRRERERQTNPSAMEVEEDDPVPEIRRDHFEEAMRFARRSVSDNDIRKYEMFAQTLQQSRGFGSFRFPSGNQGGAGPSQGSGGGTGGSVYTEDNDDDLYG
Transitional endoplasmic reticulum ATPase (Homo sapiens, UniProt P55072, C522A), sequence (P55072 2-806 C522A limits assumed): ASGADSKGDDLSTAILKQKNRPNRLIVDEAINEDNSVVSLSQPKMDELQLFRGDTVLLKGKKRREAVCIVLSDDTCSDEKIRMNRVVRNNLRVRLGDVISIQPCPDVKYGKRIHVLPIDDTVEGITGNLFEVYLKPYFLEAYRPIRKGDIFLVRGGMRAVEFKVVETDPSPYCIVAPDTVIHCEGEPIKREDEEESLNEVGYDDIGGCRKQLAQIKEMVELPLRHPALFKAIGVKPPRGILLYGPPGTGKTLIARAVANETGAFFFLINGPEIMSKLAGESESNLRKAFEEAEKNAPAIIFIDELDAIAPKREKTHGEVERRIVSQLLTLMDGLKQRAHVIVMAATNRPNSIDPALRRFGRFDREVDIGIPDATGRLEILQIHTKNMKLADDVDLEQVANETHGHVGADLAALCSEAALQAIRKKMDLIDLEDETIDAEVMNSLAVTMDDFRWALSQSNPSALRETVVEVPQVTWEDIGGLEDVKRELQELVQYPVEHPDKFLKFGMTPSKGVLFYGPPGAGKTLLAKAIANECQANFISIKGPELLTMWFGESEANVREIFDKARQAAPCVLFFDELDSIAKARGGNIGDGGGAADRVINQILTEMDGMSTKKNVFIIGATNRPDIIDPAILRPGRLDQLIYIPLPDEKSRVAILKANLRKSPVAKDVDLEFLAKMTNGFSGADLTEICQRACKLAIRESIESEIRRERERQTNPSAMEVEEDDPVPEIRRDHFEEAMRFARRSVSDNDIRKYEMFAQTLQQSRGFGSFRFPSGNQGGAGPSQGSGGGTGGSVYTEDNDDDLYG
G-protein coupled receptor 183, sequence (P32249 whole entry): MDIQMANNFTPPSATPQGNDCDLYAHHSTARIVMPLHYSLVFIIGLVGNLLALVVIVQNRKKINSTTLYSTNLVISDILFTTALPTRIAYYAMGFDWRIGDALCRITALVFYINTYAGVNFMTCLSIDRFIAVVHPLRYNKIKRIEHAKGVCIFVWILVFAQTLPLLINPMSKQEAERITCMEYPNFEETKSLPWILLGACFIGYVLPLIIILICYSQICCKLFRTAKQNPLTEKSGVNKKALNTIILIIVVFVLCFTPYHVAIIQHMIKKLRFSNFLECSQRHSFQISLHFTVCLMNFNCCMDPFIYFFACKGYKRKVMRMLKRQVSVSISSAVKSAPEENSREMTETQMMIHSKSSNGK
Galanin receptor type 2, sequence (O43603 whole entry): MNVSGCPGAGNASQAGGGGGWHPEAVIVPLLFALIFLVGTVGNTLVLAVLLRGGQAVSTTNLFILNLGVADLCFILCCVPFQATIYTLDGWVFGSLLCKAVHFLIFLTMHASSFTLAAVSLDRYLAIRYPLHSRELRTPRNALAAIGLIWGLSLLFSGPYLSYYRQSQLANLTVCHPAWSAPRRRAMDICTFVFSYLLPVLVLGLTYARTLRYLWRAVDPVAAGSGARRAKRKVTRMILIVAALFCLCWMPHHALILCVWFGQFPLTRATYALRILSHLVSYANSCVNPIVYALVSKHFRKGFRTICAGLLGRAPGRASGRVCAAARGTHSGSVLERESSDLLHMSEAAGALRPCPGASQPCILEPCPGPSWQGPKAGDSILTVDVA
Protein-tyrosine kinase 2-beta, sequence (Q14289 whole entry): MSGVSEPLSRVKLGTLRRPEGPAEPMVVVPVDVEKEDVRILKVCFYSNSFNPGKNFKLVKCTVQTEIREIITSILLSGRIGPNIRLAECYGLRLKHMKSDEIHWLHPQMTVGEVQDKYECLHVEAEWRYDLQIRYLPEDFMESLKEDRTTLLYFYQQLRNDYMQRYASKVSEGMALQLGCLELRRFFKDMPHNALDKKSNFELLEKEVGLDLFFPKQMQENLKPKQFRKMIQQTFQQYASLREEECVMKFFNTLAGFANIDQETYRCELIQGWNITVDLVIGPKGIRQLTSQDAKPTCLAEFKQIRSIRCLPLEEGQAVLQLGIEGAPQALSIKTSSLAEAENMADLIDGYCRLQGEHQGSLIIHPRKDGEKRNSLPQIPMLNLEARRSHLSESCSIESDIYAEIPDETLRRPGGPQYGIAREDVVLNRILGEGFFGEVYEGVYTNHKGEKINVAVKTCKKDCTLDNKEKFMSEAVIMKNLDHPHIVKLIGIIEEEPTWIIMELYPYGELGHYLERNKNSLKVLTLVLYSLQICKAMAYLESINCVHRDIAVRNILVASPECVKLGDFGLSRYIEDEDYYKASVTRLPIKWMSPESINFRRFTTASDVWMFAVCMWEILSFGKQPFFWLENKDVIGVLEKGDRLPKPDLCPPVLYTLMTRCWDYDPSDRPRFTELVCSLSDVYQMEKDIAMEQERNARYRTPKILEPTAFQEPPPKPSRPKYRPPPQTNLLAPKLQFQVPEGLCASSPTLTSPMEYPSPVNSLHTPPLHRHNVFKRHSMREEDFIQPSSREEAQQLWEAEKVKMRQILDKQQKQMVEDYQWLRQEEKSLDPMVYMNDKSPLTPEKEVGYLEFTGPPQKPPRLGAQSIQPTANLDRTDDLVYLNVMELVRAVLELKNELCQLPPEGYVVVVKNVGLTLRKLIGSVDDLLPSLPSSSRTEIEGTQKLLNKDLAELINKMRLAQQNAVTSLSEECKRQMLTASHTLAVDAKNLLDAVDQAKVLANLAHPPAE

SMILES: O=c1[nH]c2ccccc2n1CCCN1CCC(n2c(=O)[nH]c3cc(Cl)ccc32)CC1 [DOMPERIDONE]
- IC50 (H9c2): > 79 µM (inactive)
- IC50 (cells): > 33.3 µM (inactive)
- IC50 [1]: 12.4 µM (inactive)

SMILES: COc1cccc(-c2cc(NCCCN3CCCCC3)c3ccccc3n2)c1
- IC50 [2]: 2.21 µM (active)
- IC50 [3]: 4.89 µM (active)

SMILES: CCCCN1CCN(C(=O)/C=C/c2ccc(Br)cc2)CC1
- IC50 [4]: 0.0021 µM (active)

SMILES: COc1cccc(-c2cccc(-c3nc(C(=O)NCc4ccc(Oc5ccccc5)cc4)cc4c3[C@@H](CCO)N([S+]([O-])C(C)(C)C)C4)c2)c1 (some centres not stated)
- AC50 [5]: 0.449 µM (active)
- AC50 [6]: 0.237 µM (active)
- AC50 [7]: 0.447 µM (active)
- AC50 [8]: 0.671 µM (active)
- AC50 [9]: 0.826 µM (active)

SMILES: Nc1ccc(N=Nc2ccccc2)c(N)n1
- IC50 [10]: > 100 µM (active)
- AC50 (HeLa): 36 µM (active)
- EC50 [11]: > 50 µM (active)

SMILES: CCOC(=O)C1=C(c2ccccc2)OC(N)=C(C#N)C1C1CCCCC1 (configuration not stated)
- IC50 [12]: > 69.5 µM (not active)

SMILES: N#C/C(=C\c1cccs1)c1nc2ccccc2[nH]1
- EC50 [13]: 26.6 µM (active)
- IC50 (Galanin receptor type 2): > 42 µM (not active)
- EC50 [14]: 2.67 µM (active)
- EC50 (H4): 15.8 µM (active)

SMILES: N#CC(C#N)=Cc1c2ccccc2cc2ccccc12
- IC50 [15]: > 50 µM (not active)
- IC50 [16]: > 50 µM (not active)

SMILES: COc1ccc(S(=O)(=O)N2CCOCC2)cc1NC(=O)c1cccc(-n2cccc2)c1
- IC50 (Genome polyprotein): > 49.8 µM (not active)
